Source: US10774097B2, “Boron compounds as inhibitors of lipoxygenase and the lipoxygenase pathway, and preparation and use thereof” (UNIVERSITÄT LEIPZIG, priority 2015, dated 2020)
Converted amounts (≈) assume the structure as drawn. Read-outs that look alike come from different tables or passages of the source.

Experiments:
CT26CL25 [1] = experiment: Cytotoxicity MTT assay, CT26CL25; format: cell-based; conditions: MTT assay (top value)
Protocol: (§1) In order to determine the cytotoxicity towards various cancer cell lines, MTT and crystal violet (CV) assays were carried out. The MTT essay takes place as specified by T. Mosmann [T. Mosmann, J. Immunol. Methods, 1983, 65, 55], and the CV test takes place as specified by D. A. Flick et al. [D. A. Flick, G. E. Gifford, J. Immunol. Methods, 1984, 68, 167].
(§2) In these tests, the percentage of dead cells was analysed on the basis of the concentration of the inhibitors. The obtained IC50 value indicates the concentration of a particular inhibitor at which 50% of the analysed cells die off.
(§3) The proportion of living cells was determined by the MTT assay (3-(4,5-dimethylthiazolyl-2)-2,5-diphenyltetrazoliumbromide) and the crystal violet (CV) assay. In the MTT assay, the presence of NADH and NADPH is established. These two compounds are characteristic metabolism products in a functioning respiratory chain. NADH and NADPH reduce the MTT dye, thus leading to a change in colour, which can be measured and is thus directly proportional to the number of living cells.
(§4) Three skin cancer cell lines (A375, B16, B16F10) and three colon cancer cell lines (CT26CL25, HCT116, SW480) were analysed. Primary fibroblasts from human lung tissue (MRC-5) were used as an example of healthy cells and thus as a negative control.
(§5) The top value for each cell represents the IC50 value in the MTT assay, and the bottom value represents the IC50 value in the CV assay (crystal violet).

B16 [2] = experiment: Cytotoxicity crystal violet (CV) assay, B16; format: cell-based; conditions: CV assay (bottom value)
Protocol: as §1, §2
(§6) Meanwhile, in the crystal violet assay, the crystal violet dye can only diffuse through the perforated cell membranes of dead cells. In this case, the number of dyed cells represents the number of dead cells.
as §4, §5

B16 [3] = experiment: Cytotoxicity MTT assay, B16; format: cell-based; conditions: MTT assay (top value)
Protocol: as §1, §2, §3, §4, §5

A375 [4] = experiment: Cytotoxicity crystal violet (CV) assay, A375; format: cell-based; conditions: CV assay (bottom value)
Protocol: as §1, §2, §6, §4, §5

SW480 [5] = experiment: Cytotoxicity MTT assay, SW480; format: cell-based; conditions: MTT assay (top value)
Protocol: as §1, §2, §3, §4, §5

HCT116 [6] = experiment: Cytotoxicity MTT assay, HCT116; format: cell-based; conditions: MTT assay (top value)
Protocol: as §1, §2, §3, §4, §5

[7] = Solubility tests in ethanol and DMSO; format: physicochemical; conditions: solvent added until clear solution; for solubility: organic solvent or mixture, thermodynamic from solid
Protocol: Solubility tests in ethanol and DMSO were carried out to determine the solubility. The amount of solvent required to obtain a clear solution was added to 4 mg of the compounds in an Eppendorf tube. The concentration of the solution was then determined on the basis of the mass of the compounds and the amount of solvent.

SW480 [8] = experiment: Cytotoxicity crystal violet (CV) assay, SW480; format: cell-based; conditions: CV assay (bottom value)
Protocol: as §1, §2, §6, §4, §5

[9] = test system: primary fibroblasts (MRC-5); experiment: Cytotoxicity MTT assay, MRC-5; format: cell-based, human
Protocol: as §1, §2, §3, §4, §5

5-LOX = target: T1, 5-LOX (Homo sapiens, UniProt P09917); experiment: Inhibition test: 5-LOX activity in intact polymorphonuclear leukocytes (arachidonic acid conversion, HPLC); format: cell-based; conditions: 5-LOX-FLAP enzyme system, 15 min at 37° C., read-out: IC50 value (at concentration)
T1 construct: endogenous in cells; host or cells: intact polymorphonuclear leukocytes isolated from blood
T1 sequence (P09917 1-674): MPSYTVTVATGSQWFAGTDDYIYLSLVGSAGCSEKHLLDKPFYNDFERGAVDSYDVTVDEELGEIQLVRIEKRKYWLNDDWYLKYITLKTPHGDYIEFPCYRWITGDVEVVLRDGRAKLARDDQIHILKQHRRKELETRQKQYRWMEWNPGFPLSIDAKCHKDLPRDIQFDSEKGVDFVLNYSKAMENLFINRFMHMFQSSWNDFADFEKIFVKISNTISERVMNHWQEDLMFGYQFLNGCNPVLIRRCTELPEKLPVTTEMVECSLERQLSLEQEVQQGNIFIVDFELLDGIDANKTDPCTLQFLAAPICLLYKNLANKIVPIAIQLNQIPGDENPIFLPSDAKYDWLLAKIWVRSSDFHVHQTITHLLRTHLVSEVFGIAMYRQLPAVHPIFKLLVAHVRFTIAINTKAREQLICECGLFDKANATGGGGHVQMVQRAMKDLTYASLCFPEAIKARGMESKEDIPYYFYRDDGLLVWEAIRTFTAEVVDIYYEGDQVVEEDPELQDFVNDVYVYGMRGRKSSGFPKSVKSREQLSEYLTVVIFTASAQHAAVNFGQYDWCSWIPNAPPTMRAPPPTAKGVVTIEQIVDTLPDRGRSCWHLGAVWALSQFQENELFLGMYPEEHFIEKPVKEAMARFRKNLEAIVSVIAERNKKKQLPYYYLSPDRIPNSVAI
Protocol: The 5-LOX activity of the cells was established on the basis of the concentration of inhibitor.
In this process, intact polymorphonuclear leukocytes were isolated from blood as specified in the known literature [C. Greiner et al., British Journal of Pharmacology, 2011, 164, 781-793]. The cells were grown on cell sheets until a confluence of 95% was reached, i.e. 95% of the cell sheets was covered with cells. Each cell sheet was then treated with 10 μl of a solution of the inhibitor at concentrations of 0.05 μM, 0.1 μM, 0.5 μM, 1 μM, 5 μM, 10 μM, 50 μM and 100 μM at 37° C. for 15 minutes. Each cell sheet was then treated with an arachidonic acid solution for 10 minutes. 10 μl of a 1:1 mixture of 2 mM of arachidonic acid and 250 μM of A23187 Ca^2+-ionophore solution in ethanol was used for this.
Conversion of a small amount of arachidonic acid is evidence of a strong inhibiting effect.

CT26CL25 [10] = experiment: Cytotoxicity crystal violet (CV) assay, CT26CL25; format: cell-based; conditions: CV assay (bottom value)
Protocol: as §1, §2, §6, §4, §5

HCT116 [11] = experiment: Cytotoxicity crystal violet (CV) assay, HCT116; format: cell-based; conditions: CV assay (bottom value)
Protocol: as §1, §2, §6, §4, §5

A375 [12] = experiment: Cytotoxicity MTT assay, A375; format: cell-based
Protocol: as §1, §2, §3, §4, §5

[13] = test system: various cancer cell lines; experiment: Cytotoxicity tests on cancer cell lines (summary in words); conditions: comparison with phenyl-based compounds
Protocol: as §1, §2, §4

[14] = MTT assay (top value), read-out: IC50 A375

Compound: 1-(7-Thiomethylquinolin-2-yl-1,7-dicarba-closo-dodecaboran(12)yl)-hexan-1-ol [Embodiment 5]
- IC50 (CT26CL25 [1]): 46 µM
- IC50 (B16 [2]): > 50 µM
- IC50 (B16 [3]): 50 µM
- IC50 (A375 [4]): 30.5 µM
- IC50 (SW480 [5]): 33.1 µM
- IC50 (HCT116 [6]): 45 µM
- Solubility in DMSO ([7]; DMSO): 953.9 mM
- Solubility in EtOH ([7]; ethanol): 238.5 mM
- IC50 (SW480 [8]): > 50 µM
- selectiveness between healthy cells and cancer cells ([9]; IC50 for healthy cells (MRC-5) divided by IC50 for cancer cells (A375)): 10.2
- IC50 ([9]; read-out: IC50 value for healthy cells (MRC-5)): 82 µM
- IC50 (5-LOX): 2.5 µM
- IC50 (CT26CL25 [10]): 50 µM
- IC50 (HCT116 [11]): > 50 µM
- IC50 (A375 [12]; read-out: IC50 value for A375 cancer cells): 8 µM

Compound: 1-((7-Quinolin-2-ylmethoxy)-1,7-dicarba-closo-dodecaboran(12)yl)-hexan-1-ol [Embodiment 3]
- cytotoxicity towards cancer cell lines (in words) [13]: considerably higher cytotoxicity
- Solubility in DMSO ([7]; DMSO): 208.3 mM
- Solubility in EtOH ([7]; ethanol): 86.8 mM
- IC50 (5-LOX): 1.4 µM

Compound: 1-(Quinolin-2-ylmethoxy)-1,7-dicarba-closo-dodecaborane(12) [Comparative Example 1]
- IC50 (CT26CL25 [1]): > 50 µM
- IC50 (B16 [2]): 47.6 µM
- IC50 (B16 [3]): 47.4 µM
- IC50 (A375 [4]): > 50 µM
- IC50 (SW480 [5]): > 50 µM
- cytotoxicity towards cancer cell lines (in words) [13]: insufficient cytotoxicity
- IC50 (HCT116 [6]): > 50 µM
- Solubility in DMSO ([7]; DMSO): 432 mM
- Solubility in EtOH ([7]; ethanol): 72 mM
- IC50 (SW480 [8]): > 50 µM
- IC50 (5-LOX): 2.3 µM
- IC50 (CT26CL25 [10]): > 50 µM
- IC50 (A375 [12]; [14]): 50 µM

Compound: 1-(Quinolin-2-ylmethyl)thio-1,7-dicarba-closo-dodecaborane(12) [Comparative Example 2]
- IC50 (CT26CL25 [1]): > 50 µM
- IC50 (B16 [2]): > 50 µM
- IC50 (B16 [3]): > 50 µM
- IC50 (A375 [4]): 34.8 µM
- cytotoxicity towards cancer cell lines (in words) [13]: insufficient cytotoxicity
- IC50 (HCT116 [6]): > 50 µM
- Solubility in DMSO ([7]; DMSO): 600 mM
- Solubility in EtOH ([7]; ethanol): 67 mM
- IC50 (SW480 [8]): > 50 µM
- IC50 (5-LOX): 5.8 µM
- IC50 (CT26CL25 [10]): > 50 µM
- IC50 (HCT116 [11]): > 50 µM
- IC50 (A375 [12]; [14]): 30 µM

Compound: 1-Quinolin-2-ylmethoxy-1,12-dicarba-closo-dodecaborane(12) [Comparative Example 3]
- IC50 (CT26CL25 [1]): 35 µM
- IC50 (B16 [2]): 46 µM
- IC50 (B16 [3]): 45.7 µM
- IC50 (A375 [4]): 26.9 µM
- IC50 (SW480 [5]): 29 µM
- Solubility in DMSO ([7]; DMSO): 208.3 mM
- Solubility in EtOH ([7]; ethanol): 86.8 mM
- IC50 ([9]; single value in cell, unit inferred, top value = MTT assay, read-out: IC50 MRC-5): > 100 µM
- IC50 (5-LOX): 1.4 µM
- IC50 (CT26CL25 [10]): 50 µM
- IC50 (HCT116 [11]): > 50 µM
- IC50 (A375 [12]; [14]): 8.8 µM

Compound: CCCCCC(O)c1cccc(OCc2ccc3ccccc3n2)c1 (stereo not drawn) [Rev-5901, reference compound]
- IC50 (CT26CL25 [1]): 28.1 µM
- IC50 (B16 [2]; Mus musculus, B16): 45 µM
- IC50 (B16 [3]; Mus musculus, B16): 27.6 µM
- IC50 (A375 [4]; Homo sapiens, A-375): 46.5 µM
- IC50 (SW480 [5]; Homo sapiens, SW480): 50 µM
- IC50 (HCT116 [6]; Homo sapiens, HCT-116): 50 µM
- solubility ([7]; DMSO, read-out: Solubility in DMSO): 29.8 mM (≈ 10000 µg/mL)
- solubility ([7]; ethanol, read-out: Solubility in EtOH): 29.7 mM (≈ 9960 µg/mL)
- IC50 (SW480 [8]; Homo sapiens, SW480): > 50 µM
- IC50 ([9]; Homo sapiens, MRC5, MTT assay (top value), healthy cells, read-out: IC50 MRC-5): 70.1 µM
- IC50 ([9]; Homo sapiens, MRC5, read-out: IC50 value for healthy cells (MRC-5)): 70 µM
- IC50 (CT26CL25 [10]): > 50 µM
- IC50 (HCT116 [11]; Homo sapiens, HCT-116): 50 µM
- IC50 (A375 [12]; Homo sapiens, A-375, MTT assay (top value), read-out: IC50 A375): 25 µM
- IC50 (A375 [12]; Homo sapiens, A-375, depending on the method of analysis used (MTT/CV), read-out: IC50 values towards melanoma cancer cell line A375): 25 to 50 µM
